From PubChem BioAssay AID1259408 (Genetic Toxicology Data Bank (GENE-TOX), 2018)
Activity calls are given as the source filed them. No rule for the calls is given here.

Tested on: GENE-TOX genotoxicity assays, various organisms and cells
Test: GENE-TOX mutagenicity studies
Details: for call: Assay Type: In vivo carcinogenicity studies
[1] = Species/Cell Type: Salmonella typhimurium (one or more of the five standard strains: TA98, TA100, TA1535, TA1537, and TA1538), Assay Type: Histidine reverse gene mutation, Ames assay, Assay Code: SAL+*, Activation: With metabolic activation, Evaluation Type: Evaluation A (Pre-1980)

In the case of O=P1(N(CCCl)CCCl)NCCCO1 (stereo unspecified), the mutagenic call (Species/Cell Type: Arabidopsis species, Assay Type: Gene mutation, Assay Code: ARM-, Evaluation Type: Evaluation A (Pre-1980)) is reported as “inactive; negative”, the mutagenic call (Species/Cell Type: Chinese hamster ovary (CHO) cells, Assay Type: Forward gene mutation at the HPRT locus, Assay Code: CHO+*, Activation: With metabolic activation, Evaluation Type: Evaluation B (Post-1980)) is reported as “active; positive” and the mutagenic call (Species/Cell Type: Drosophila melanogaster, Assay Type: Sex-linked recessive lethal gene mutation, Assay Code: SRL+, Evaluation Type: Evaluation A (Pre-1980)) is reported as “active; positive”. For the same compound, the mutagenic call (Species/Cell Type: Escherichia coli WP2, Assay Type: Tryptophan reverse gene mutation, Assay Code: WP2+, Evaluation Type: Evaluation A (Pre-1980)) was “active; positive”, the mutagenic call (Species/Cell Type: Escherichia coli WP2 UVRA, Assay Type: Tryptophan reverse gene mutation, Assay Code: WPU+, Evaluation Type: Evaluation A (Pre-1980)) was “active; positive” and the mutagenic call (Species/Cell Type: Escherichia coli polA (W3110 vs P3478), Assay Type: Rec-assay, DNA effects (bacterial DNA repair), Assay Code: RE2+, Evaluation Type: Evaluation A (Pre-1980)) was “active; positive”. The mutagenic call (Species/Cell Type: F1 mouse, Sex: Male, Assay Type: Sperm morphology, Assay Code: SPF+, Evaluation Type: Evaluation A (Pre-1980)) was “active; positive”, the mutagenic call (Species/Cell Type: Fischer rat embryo (RLV/1706) cells, Assay Type: Cell transformation, viral enhanced, Assay Code: CTR+, Evaluation Type: Evaluation A (Pre-1980)) was “active; positive” and the mutagenic call (Species/Cell Type: Human bone marrow, Assay Type: Chromosome aberrations in vivo, Assay Code: CY5+, Evaluation Type: Evaluation A (Pre-1980)) was “active; positive”. The mutagenic call (Species/Cell Type: Human cell culture, Assay Type: Chromosome aberrations in vitro, Assay Code: CYZ+, Evaluation Type: Evaluation A (Pre-1980)) was “active; positive”, the mutagenic call (Species/Cell Type: Human diploid fibroblasts, Assay Type: Unscheduled DNA synthesis (UDS) in vitro, DNA effects, Assay Code: UDHT, Evaluation Type: Evaluation A (Pre-1980)) was “no conclusion” and the mutagenic call (Species/Cell Type: Human lymphocytes or leukocytes, Assay Type: Chromosome aberrations in vitro, Assay Code: CY7+D, Dose Response: With dose response, Evaluation Type: Evaluation A (Pre-1980)) was “active; positive”. For the same compound, the mutagenic call (Species/Cell Type: Human lymphocytes or leukocytes, Assay Type: Chromosome aberrations in vivo, Assay Code: CY8+, Evaluation Type: Evaluation A (Pre-1980)) was “active; positive”, the mutagenic call (Species/Cell Type: Human lymphocytes, Assay Type: Sister-chromatid exchange (SCE) in vitro, Assay Code: SCL+D, Dose Response: With dose response, Evaluation Type: Evaluation B (Post-1980)) was “active; positive” and the mutagenic call (Species/Cell Type: Human lymphocytes, Assay Type: Sister-chromatid exchange (SCE) in vitro, Assay Code: SCLT, Evaluation Type: Evaluation A (Pre-1980)) was “no conclusion”. For the same compound, the mutagenic call (Species/Cell Type: Human lymphocytes, Assay Type: Sister-chromatid exchange (SCE) in vivo, Assay Code: SCY+, Evaluation Type: Evaluation B (Post-1980)) was “active; positive”, the mutagenic call (Species/Cell Type: Human, Assay Type: Sister-chromatid exchange (SCE) in vitro, Assay Code: SC1+D, Dose Response: With dose response, Evaluation Type: Evaluation B (Post-1980)) was “active; positive” and the mutagenic call (Species/Cell Type: Human, Sex: Male, Assay Type: Sperm morphology, Assay Code: SPH+, Evaluation Type: Evaluation A (Pre-1980)) was “active; positive”. For the same compound, the mutagenic call (Species/Cell Type: Mammalian germ cells, Sex: Male, Assay Type: Chromosome aberrations in vivo, Assay Code: CY9+, Evaluation Type: Evaluation A (Pre-1980)) was “active; positive”, the mutagenic call (Species/Cell Type: Mammalian oocytes or early embryo, Assay Type: Chromosome aberrations in vivo, Assay Code: CYO+D, Dose Response: With dose response, Evaluation Type: Evaluation A (Pre-1980)) was “active; positive” and the mutagenic call (Species/Cell Type: Mammalian polychromatic erythrocytes, Assay Type: Micronucleus test, chromosome aberrations, Assay Code: MNT+, Evaluation Type: Evaluation A (Pre-1980)) was “active; positive”. For the same compound, the mutagenic call (Species/Cell Type: Mouse (BALB/c-3T3) cells, Assay Type: Cell transformation, Assay Code: CTB-, Evaluation Type: Evaluation A (Pre-1980)) was “inactive; negative”, the mutagenic call (Species/Cell Type: Mouse (C3H/10T1/2) cells, Assay Type: Cell transformation, Assay Code: CTH+D*, Activation: With metabolic activation, Dose Response: With dose response, Evaluation Type: Evaluation A (Pre-1980)) was “active; positive” and the mutagenic call (Species/Cell Type: Mouse germ cells, Sex: Male, Assay Type: Unscheduled DNA synthesis (UDS) in vivo, DNA effects, Assay Code: UDT+, Evaluation Type: Evaluation A (Pre-1980)) was “active; positive”. The mutagenic call (Species/Cell Type: Mouse lymphoma (L5178Y) cells, Assay Type: Forward gene mutation at the thymidine kinase (TK) locus, chromosome aberrations, Assay Code: L51+*, Activation: With metabolic activation, Evaluation Type: Evaluation A (Pre-1980)) was “active; positive”, the mutagenic call (Species/Cell Type: Mouse, Sex: Female, Assay Type: Spot test, gene mutation, Assay Code: MST+, Evaluation Type: Evaluation A (Pre-1980)) was “active; positive” and the mutagenic call (Species/Cell Type: Mouse, Sex: Male, Assay Type: Heritable translocation test, chromosome aberrations, Assay Code: HTT+, Evaluation Type: Evaluation A (Pre-1980)) was “active; positive”. For the same compound, the mutagenic call (Species/Cell Type: Mouse, Sex: Male, Assay Type: Specific locus test, gene mutation, Assay Code: SLT+, Evaluation Type: Evaluation A (Pre-1980)) was “active; positive”, the mutagenic call (Species/Cell Type: Mouse, Sex: Male, Assay Type: Sperm morphology, Assay Code: SPI+, Evaluation Type: Evaluation A (Pre-1980)) was “active; positive” and the mutagenic call (Species/Cell Type: Nonhuman bone marrow, Assay Type: Chromosome aberrations, in vivo, Assay Code: CY#+D, Dose Response: With dose response, Evaluation Type: Evaluation A (Pre-1980)) was “active; positive”. The call (Species/Cell Type: Nonhuman, Assay Code: CCG+, Evaluation Type: Evaluation A (Pre-1980)) was “active; positive”, the mutagenic call (Species/Cell Type: Nonhuman, Assay Type: Sister-chromatid exchange (SCE) in vitro, Assay Code: SC2+D, Dose Response: With dose response, Evaluation Type: Evaluation A (Pre-1980)) was “active; positive” and the mutagenic call (Species/Cell Type: Nonhuman, Assay Type: Sister-chromatid exchange (SCE) in vivo, Assay Code: SC3+D, Dose Response: With dose response, Evaluation Type: Evaluation A (Pre-1980)) was “active; positive”. For the same compound, the mutagenic call (Species/Cell Type: Rabbit, Sex: Male, Assay Type: Sperm morphology, Assay Code: SPRT, Evaluation Type: Evaluation A (Pre-1980)) was “no conclusion”, the mutagenic call (Species/Cell Type: Rat, Sex: Male, Assay Type: Sperm morphology, Assay Code: SPA+, Evaluation Type: Evaluation A (Pre-1980)) was “active; positive” and the mutagenic call (Species/Cell Type: Rodents, Sex: Male, Assay Type: Dominant lethal test, Assay Code: DLT+D, Dose Response: With dose response, Evaluation Type: Evaluation A (Pre-1980)) was “active; positive”. For the same compound, the mutagenic call (Species/Cell Type: Saccharomyces cerevisiae, Assay Type: Forward gene mutation, Assay Code: YEF+, Evaluation Type: Evaluation A (Pre-1980)) was “active; positive”, the mutagenic call (Species/Cell Type: Saccharomyces cerevisiae, Assay Type: Mitotic recombination or gene conversion, Assay Code: YEC+*, Activation: With metabolic activation, Evaluation Type: Evaluation A (Pre-1980)) was “active; positive” and the mutagenic call (Species/Cell Type: Saccharomyces cerevisiae, Assay Type: Mitotic recombination or gene conversion, Assay Code: YEH+, Evaluation Type: Evaluation A (Pre-1980)) was “active; positive”. The mutagenic call (Species/Cell Type: Saccharomyces cerevisiae, Assay Type: Reverse gene mutation, Assay Code: YER+, Evaluation Type: Evaluation A (Pre-1980)) was “active; positive”, the mutagenic call [1] was “active; positive” and the mutagenic call (Species/Cell Type: Salmonella typhimurium, Escherichia coli, Serratia marcesens, human lymphoid cells, Saccharomyces cerevisiae, Chinese ha, Assay Type: Forward and reverse gene mutation, mitotic recombination and gene conversion, DNA effects, chromosome aberrations, host-, Assay Code: HM6+, Evaluation Type: Evaluation A (Pre-1980)) was “active; positive”. The mutagenic call (Species/Cell Type: Salmonella typhimurium, Saccharomyces cerevisiae, human leukocytes and diploid fibroblasts, Assay Type: Forward and reverse gene mutation, mitotic recombination and gene conversion, DNA effects, body fluid assay, Assay Code: BFJ+, Evaluation Type: Evaluation A (Pre-1980)) was “active; positive”.

CCNCCNc1ccc(CO)c2sc3cc(Cl)ccc3c(=O)c12 was tested, and the mutagenic call (Species/Cell Type: Mouse lymphoma (L5178Y) cells, Assay Type: Forward gene mutation at the thymidine kinase (TK) locus, chromosome aberrations, Assay Code: L51+, Evaluation Type: Evaluation A (Pre-1980)) was “active; positive”.

For CCOP(=O)(OCC)Oc1ccc([N+](=O)[O-])cc1, the mutagenic call (Species/Cell Type: Nonhuman, Assay Type: Sister-chromatid exchange (SCE) in vitro, Assay Code: SC2+D, Dose Response: With dose response, Evaluation Type: Evaluation B (Post-1980)) was “active; positive”.

In the case of CCN(Cc1cccc(S(=O)(=O)O)c1)c1ccc(C(=C2C=CC(=[N+](CC)Cc3cccc(S(=O)(=O)O)c3)C=C2)c2ccccc2S(=O)(=O)[O-])cc1, the mutagenic call (Species/Cell Type: Bacillus subtilis (H17 vs M45), Assay Type: Rec-assay, spot test, DNA effects (bacterial DNA repair), Assay Code: REW-, Evaluation Type: Evaluation A (Pre-1980)) is reported as “inactive; negative” and the mutagenic call (Species/Cell Type: Salmonella typhimurium (one or more of the five standard strains: TA98, TA100, TA1535, TA1537, and TA1538), Assay Type: Histidine reverse gene mutation, Ames assay, Assay Code: SAL-, Evaluation Type: Evaluation A (Pre-1980)) is reported as “inactive; negative”.

For CCCCCCCCCCCCCC(=O)O[C@@H]1[C@@H](C)[C@@]2(O)[C@@H](C=C(CO)C[C@]3(OC)C(=O)C(C)=C[C@@H]23)[C@@H]2C(C)(C)[C@]12OC(C)=O, the mutagenic call (Species/Cell Type: Nonhuman, Assay Type: Sister-chromatid exchange (SCE) in vitro, Assay Code: SC2-, Evaluation Type: Evaluation A (Pre-1980)) was “inactive; negative” and the mutagenic call (Species/Cell Type: Nonhuman, Assay Type: Sister-chromatid exchange (SCE) in vitro, Assay Code: SC2T, Evaluation Type: Evaluation B (Post-1980)) was “no conclusion”.

With O[C@@H]1c2ccccc2-c2cc3ccc4ccccc4c3cc2[C@H]1O the mutagenic call (Species/Cell Type: Chinese hamster lung (V79) cells, Assay Type: Forward gene mutation at the HPRT or ouabain locus, Assay Code: V79-, Evaluation Type: Evaluation A (Pre-1980)) was “inactive; negative”, the mutagenic call (Species/Cell Type: Mouse prostate cells, Assay Type: Cell transformation, Assay Code: CTM-, Evaluation Type: Evaluation A (Pre-1980)) was “inactive; negative” and the call (Species/Cell Type: Nonhuman, Assay Code: CCGT, Evaluation Type: Evaluation A (Pre-1980)) was “no conclusion”. For the same compound, the mutagenic call [1] was “active; positive” and the mutagenic call (Species/Cell Type: Syrian hamster embryo (SHE) cells, Assay Type: Cell transformation, clonal assay, Assay Code: CTCT, Evaluation Type: Evaluation A (Pre-1980)) was “no conclusion”.

In the case of CCCCN(CC(O)CC(=O)O)N=O (stereo unspecified), the mutagenic call (Species/Cell Type: Salmonella typhimurium (one or more of the five standard strains: TA98, TA100, TA1535, TA1537, and TA1538), Assay Type: Histidine reverse gene mutation, Ames assay, Assay Code: SALT, Evaluation Type: Evaluation A (Pre-1980)) is reported as “no conclusion”.

CNC(=O)Nc1nc(-c2ccc(OC)cc2)cs1 was tested, and the mutagenic call (Species/Cell Type: Salmonella typhimurium, Assay Type: Forward and reverse gene mutation, host-mediated assay, Assay Code: HMAT, Evaluation Type: Evaluation A (Pre-1980)) was “no conclusion”.
